# Test results from US20260184669A1, “LIPID COMPOUND AND COMPOSITION FOR DELIVERY OF ACTIVE SUBSTANCE” (KOREA RESEARCH INSTIUTE OF BIOSCIENCE AND BIOTECHNOLOGY, priority 2022, published 2026).
# Like-named read-outs stand apart in the source and are kept apart here.
# Experiments:
# female C57BL/6 mice = assay: Protein expression efficiency of fLuc mRNA-LNPs after intramuscular injection (IVIS whole-body luminescence); type: in vivo; settings: for Total flux 1 hour / Total flux 3 hours / Total flux 6 hours / Total flux 48 hours / Total flux 72 hours / Total flux: fLuc mRNA-LNP, intramuscular injection, luminescence at injection site, mice; for Total flux 1 hour: 1 hour after administration; for Total flux 3 hours: 3 hours after administration; for Total flux 6 hours: 6 hours after administration; for Total flux 48 hours: 48 hours after administration; for Total flux 72 hours: 72 hours after administration; for Total flux: after administration
# Summary of the method: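 Female C57BL/6 mice (6-10 weeks, n≥4) got intramuscular fLuc mRNA-LNPs at 0.1-0.5 mg/kg mRNA. Injection-site luminescence was imaged under isoflurane at 1-72 h, 10 min after i.p. D-luciferin (200 μL, 15 mg/mL). Expression at 3 h was taken relative to MC3 or SM-102 LNPs.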
# [1] = test system: IL-1β mRNA level in HEK-293T cells
# [2] = Size, polydispersity index and surface charge of mRNA-LNP (Malvern Zetasizer Nano ZS90); type: physicochemical; settings: for PDI / size (nm) Number: mRNA-LNP made with the ionizable lipid at its optimal formulation (Table 2); for size (nm) Number: diluted with PBS to 1 μg/mL mRNA; for Zeta (mV): surface charge of mRNA-LNP made with the ionizable lipid at its optimal formulation (Table 2)
# Summary of the method: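 Dynamic/electrophoretic light scattering of LNPs diluted in PBS to a final mRNA concentration of 1 μg/mL. Readouts were particle size, PDI and surface charge.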
# [3] = test system: CCL2 mRNA level in HEK-293T cells
# [4] = mRNA encapsulation efficiency (Quant-IT RiboGreen RNA assay); type: physicochemical; settings: mRNA encapsulation efficiency of mRNA-LNP made with the ionizable lipid; average of two measurements
# Summary of the method: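 LNP samples read with RiboGreen reagent in TE buffer with or without 2% Triton X-100 (37 °C, 10 min) to release encapsulated mRNA. Fluorescence at λex 480/λem 520 nm; EE % calculated from the two readings, averaged over two independent measurements.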
# [5] = Apparent pKa of mRNA-LNP by TNS binding assay; type: physicochemical; settings: apparent pKa of mRNA-LNP made with the ionizable lipid
# Description: The apparent pKa of the mRNA-LNPs prepared according to Example 27 was determined by analysis using 6-(p-toluidino)-2-naphthalenesulfonic acid sodium salt (TNS; Sigma-Aldrich, USA).
# However, as the pH decreases, the proportion of positively charged ionizable lipids increases, allowing electrostatic interactions with TNS. […] When the pH of the solution increases and the ionizable lipids become neutralized, TNS can no longer engage in electrostatic interactions. Consequently, TNS loses its lipophilic character, exits the hydrophobic domain, and its fluorescence is quenched. Based on this principle, the pKa of LNPs can be measured by plotting the change in TNS fluorescence intensity in response to variations in the surrounding pH as an S-shaped curve, and calculating the […] of the inflection point. […]
# Specifically, a master buffer was prepared containing 10 mM sodium phosphate, 10 mM sodium borate, 10 mM sodium citrate, and 150 mM sodium chloride (NaCl). […] After gently mixing the contents of each well, the fluorescence intensity was measured using a multiplate reader (Cary Eclipse, Agilent Technologies, USA) at an excitation wavelength of λex 330 nm and an emission wavelength of λem 435 nm.
# [6] = test system: CCL3 mRNA level in HEK-293T cells
# [7] = test system: IL-6 mRNA level in HEK-293T cells
# [8] = Stability of mRNA-LNPs according to storage temperature and duration; type: physicochemical; settings: for Normalized EE % D-7 / PDI D-7 / Size (nm) D-7: day 7; for Normalized EE % D-30 / PDI D-30 / Size (nm) D-30: day 30
# Description: Stability of fLuc mRNA-LNPs produced using various ionizable lipids according to the method of Example 27, was assessed by storing the LNPs at 4° C. and 25° C. At 1, 7, and 30 days post-manufacture, the size, PDI, and encapsulation efficiency (EE) of each mRNA-LNPs samples were measured using the methods described in Experimental Examples 2 and 3.
# [9] = In vivo toxicity evaluation, serum biochemical analysis (AST, ALT, ALP, BUN, creatinine); settings: serum of mice after injection of fLuc mRNA-LNP, FIG. 9
# Description: Toxicity induced by fLuc mRNA-LNPs prepared using various ionizable lipids according to the method of Example 27 was evaluated through serum biochemical analysis following […]. injection into mice.
# Specifically, 50-100 μL of serum was collected each mouse at 24 and 48 hours after intravenous injection using the retro-orbital bleeding method. The serum biochemical analysis was performed using Hitachi 7150 Chemistry Analyzer, measuring indicators of liver function—aspartate aminotransferase (AST), alanine aminotransferase (ALT), alkaline phosphatase (ALP)- and indicators of kidney function—blood urea nitrogen (BUN) and creatinine.
# [10] = fLuc mRNA-LNP stored at 4° C., day 1
# [11] = fLuc mRNA-LNP stored at 25° C., day 1
structure (smiles),measurement,setting,value
"CCCCCCCCCCCOC(=O)CCCCCN(CCO)CCCCCCCC(=O)OC(CCCCCCCC)CCCCCCCC [SM-102, reference compound]",Total flux 1 hour,female C57BL/6 mice,1.48E+07
same,Total flux 3 hours,female C57BL/6 mice,1.12E+08
same,Total flux 6 hours,female C57BL/6 mice,1.82E+08
same,Total flux 48 hours,female C57BL/6 mice,7.43E+06
same,Total flux 72 hours,female C57BL/6 mice,2.86E+06
same,Total flux,female C57BL/6 mice,2.27E+07
same,IL-1β Average,[1],1.14
same,PDI,[2],0.140
same,size (nm) Number,[2],101 nm
same,Zeta (mV),[2],−2.99 mV
same,CCL2 Average,[3],0.83
same,EE (%),[4],94%
same,PKa,[5],6.48
same,CCL3 Average,[6],2.41
same,IL-6 Average,[7],1.82
"CCCCCCCCCCCOC(=O)CCCCCN(CCCCCCCC(=O)OC(CCCCCCCC)CCCCCCCC)CC(O)CCCCNC(=O)c1cc[nH]c1 (stereo not shown) [Compound 17, Heptadecan-9-yl 8-((2-hydroxy-6-(1H-pyrrole-3-carboxamido)hexyl)(6-oxo-6-(undecyloxy)hexyl)amino)octanoate]",protein expression compared to the control group (SM-102),"female C57BL/6 mice; 3 hours post intramuscular injection, in words",significantly higher protein expression
same,Total flux 1 hour,female C57BL/6 mice,6.53E+07
same,Total flux 3 hours,female C57BL/6 mice,2.23E+08
same,Total flux 6 hours,female C57BL/6 mice,1.02E+08
same,Total flux 48 hours,female C57BL/6 mice,4.80E+06
same,Total flux 72 hours,female C57BL/6 mice,4.21E+06
same,Total flux,female C57BL/6 mice,1.00E+07
same,"Fold increase in total flux at 3 h, MC3","female C57BL/6 mice; relative to control LNP formulated with MC3, 3 hours after intramuscular injection",18.09
same,"Fold increase in total flux at 3 h, SM-102","female C57BL/6 mice; relative to control LNP formulated with SM-102, 3 hours after intramuscular injection",1.99
same,IL-1β Average,[1]; human,0.70
same,PDI,[2],0.100
same,size (nm) Number,[2],151 nm
same,Zeta (mV),[2],−6.80 mV
same,CCL2 Average,[3]; human,0.65
same,EE (%),[4],94%
same,CCL3 Average,[6]; human,1.10
same,IL-6 Average,[7]; human,0.94
same,Normalized EE % D-1,[8]; [10],94.0%
same,PDI D-1,[8]; [10],0.100
same,Size (nm) D-1,[8]; [10],151.2 nm
same,Normalized EE % D-7,[8]; fLuc mRNA-LNP stored at 4° C.,91.3%
same,PDI D-7,[8]; fLuc mRNA-LNP stored at 4° C.,0.098
same,Size (nm) D-7,[8]; fLuc mRNA-LNP stored at 4° C.,133.8 nm
same,Normalized EE % D-30,[8]; fLuc mRNA-LNP stored at 4° C.,89.8%
same,PDI D-30,[8]; fLuc mRNA-LNP stored at 4° C.,0.081
same,Size (nm) D-30,[8]; fLuc mRNA-LNP stored at 4° C.,130.7 nm
same,Normalized EE % D-1,[8]; [11],94.0%
same,Size (nm) D-1,[8]; [11],151.2 nm
same,Normalized EE % D-7,[8]; fLuc mRNA-LNP stored at 25° C.,90.2%
same,PDI D-7,[8]; fLuc mRNA-LNP stored at 25° C.,0.114
same,Size (nm) D-7,[8]; fLuc mRNA-LNP stored at 25° C.,134.2 nm
same,Normalized EE % D-30,[8]; fLuc mRNA-LNP stored at 25° C.,88.6%
same,PDI D-30,[8]; fLuc mRNA-LNP stored at 25° C.,0.128
same,Size (nm) D-30,[8]; fLuc mRNA-LNP stored at 25° C.,128.1 nm
same,ALP level compared to control groups (PBS and SM-102),[9],similar
same,AST level compared to control groups (PBS and SM-102),[9],lower
same,BUN level compared to control groups (PBS and SM-102),[9],similar
